Data published in article PMC6514996, “Discovery of Potent and Selective Halogen-Substituted Imidazole-Thiosemicarbazides for Inhibition of Toxoplasma gondii Growth In Vitro via Structure-Based Design” (Molecules, 2019).
Values after ≈ are worked out from the molar mass of the structure shown.

Assays:
[1] = tested on: Toxoplasma gondii tachyzoites; set-up: method as in PMID 30744161; settings: ref [19], cited from earlier work; for IC50: inhibition of T. gondii tachyzoite proliferation, previous study; for SR (selectivity ratio): ratio of CC50 to IC50, previous study
[2] = Lipophilicity by HPLC (logkw extrapolation, OECD guideline); type: physicochemical; settings: Phenomenex Synergi 4 µm Polar-RP column, methanol:water, calibration with seven standards
Procedure: HPLC experiments were performed using a chromatograph equipped with an Elite LaChrom L-2130 gradient pump, L-2455 DAD detector, L-2300 column oven, and L-2200 autosampler (Hitachi-Merck, Darmstadt, Germany). The tested samples were applied into the Phenomenex Synergi 4 µm Polar-RP chromatographic column (Phenomenex, Torrance, CA, USA) (150 mm length, 4.6 mm i.d.). Mobile phases were degassed using a built-in membrane degasser.
Chromatographic analysis: 5 µL of each sample (0.1% methanolic solutions) was applied into the chromatographic column and chromatograms were developed at a flow rate of 1.0 mL min^−1 in the isocratic mode using various concentrations of methanol in the binary polar mobile phase: methanol:water (40:60, 45:55, 50:50, 55:45, 60:40, 65:35, and 70:30 (v/v)) Chromatograms were detected at 254 nm. All experiments were repeated in triplicate, and the final results were their arithmetic mean. Dead time was measured for uracil (Calbiochem—Merck, Darmstadt, Germany). All the experiments were performed at ambient temperature.
The chromatographic lipophilicity parameter (logkw) for 5–16 was obtained by the extrapolation of the retention parameter logk to pure water, according to the equation: logk = logkw − S × φ(1) where logkw is the value of the retention factor of a substance in pure water, S is the slope of the regression curve, and φ is the concentration (v/v) of methanol in the mobile phase.
Subsequently, logPHPLC parameters for 5–16 were calculated according to OECD guidelines, based on the equation obtained for seven standards with known lipohilicity parameters (logPo/w): logPo/w = 1.0239(± 0.03)·logkw − 0.1541(± 0.08); n = 7; r = 0.9976; se = 0.08; F = 1047.8(2)

[3] = tested on: Toxoplasma gondii RH strain tachyzoites (ATCC PRA 310); experiment: Influence on T. gondii proliferation in Hs27 cells, [3H]-uracil incorporation assay; type: cell-based; settings: for IC50: Toxoplasma gondii, HS27, 50% inhibition of T. gondii RH proliferation in vitro, Hs27 host cells, [3H]-uracil incorporation; for SR (selectivity ratio): ratio of CC50 (L929) to IC50 (T. gondii)
[4] = Cytotoxicity against L929 cells, MTT cell viability assay (ISO 10993-5:2009(E)); type: cell-based; settings: mouse, L929 mouse fibroblast cells; for viability at 24 h, 5 µg/mL / viability at 24 h, 25 µg/mL / viability at 24 h, 50 µg/mL / viability at 24 h, 125 µg/mL / viability at 24 h, 250 µg/mL / viability at 24 h, 500 µg/mL / viability at 24 h, 1000 µg/mL: read-out: viability of L929 cells (% of viable cells); for CC50 at 24 h: 50% cell proliferation inhibition, L929 cells
From the text: Since T. gondii is an obligate intracellular parasite that requires invasion of mammalian host cells to proliferate, compounds that inhibit parasite growth might be toxic to host cells as well. Therefore, as an initial indicator for host cell toxicity, we firstly evaluated compounds 5–16 for their ability to inhibit the growth of mouse fibroblast (L929) cells line according to the international standards: ISO 10993-5:2009(E).
To calculate the reduction of viability compared to the untreated blank the equation was used: viability (%) = 100% × sample OD570 (the mean value of the measured optical density of the treated cells)/blank OD570 (the mean value of the measured optical density of the untreated cells). CC50—represents the concentration of tested compounds that was required for a 50% cell proliferation inhibition in vitro. The effect of the tested compounds on the cell lines was measured using MTT assay according to the international standard: ISO 10993-5:2009(E). CC50 values were determined based on the plotted curves using GraphPad Prism program (version 8.0.1).
Cell culture: the L929 mouse fibroblast (ATTC® CCL-1™) was routinely cultured in IMDM (Iscove’s Modified Dulbecco Medium, Biowest, Nuaille, France), supplemented with 10% HIFBS, 100 U/mL penicillin and 100 μg/mL streptomycin. Cells were trypsinized twice a week and seeded at a density of 1 × 10^6 per T25 cell culture flask and incubated for 24–48 h in a 37 °C and 10% CO2 to achieve a confluent monolayer.
Cell viability assay: Assays were performed according to international standards: ISO 10993-5:2009(E), Biological evaluation of medical devices, Part 5: Tests for in vitro cytotoxicity. Cell viability were evaluated using the tetrazolium salt [3-(4,5-dimethylthiazol-2-yl)-2,5-diphenyltetrazolium bromide] (Sigma) and mouse fibroblasts L929 cells. For this assay we used only the culture medium, RPMI 1640, without phenol red (Biowest) supplemented with 10% HIFBS, 2 mM L-glutamine (Sigma), 100 U/mL penicillin, 100 μg/mL streptomycin. Shortly after, a 1 × 10^4/well of L929 cells were placed into 96-well plates and incubated in 37 °C and 10% CO2. Afterwards, an old culture medium was replaced by 100 μL of compounds and drugs dilutions in culture medium and the cells were treated for 24 h. Moreover, cells were treated with a 4.0–0.03% concentration of DMSO and 1M NaOH as a compound and drugs solvent (data not shown). Then, 50 μL of 1 mg/mL of MTT solution in RPMI 1640 without phenol red was added to each well and incubated 2h (37 °C, 10% CO2). Next, cell culture medium was aspirated cautiously and 150 μL of DMSO was added to each well, the plates were gently mixed. Then 25 μL 0.1M glycine buffer (pH = 10.5) (Sigma) was added. The optical density at 570 nm on the ELISA reader (Multiskan EX, Labsystems, Vienna, VA, USA), was read. The results were expressed as a percentage of viability compared to untreated cells. All experiments were performed in triplicate. For comparison reasons, two compounds known from our previous studies (6 and 9) were included in the bioassay performed for compounds 5, 7, 8, 9–16.

| SMILES | IC50 [1] [µg/mL] | SR (selectivity ratio) [1] [fold] | chromatographic logP [2] | IC50 [3] [µg/mL] | SR (selectivity ratio) [3] | viability at 24 h, 5 µg/mL [4] [%] | viability at 24 h, 25 µg/mL [4] [%] | viability at 24 h, 50 µg/mL [4] [%] | viability at 24 h, 125 µg/mL [4] [%] | viability at 24 h, 250 µg/mL [4] [%] | viability at 24 h, 500 µg/mL [4] [%] | viability at 24 h, 1000 µg/mL [4] [%] | CC50 at 24 h [4] [µg/mL] |
| --- | --- | --- | --- | --- | --- | --- | --- | --- | --- | --- | --- | --- | --- |
| Cc1nc[nH]c1C(=O)NNC(=S)Nc1cccc([N+](=O)[O-])c1 [Compound 1] | 14.78 (≈ 46.1 µM) | 18 |  |  |  |  |  |  |  |  |  |  |  |
| Cc1nc[nH]c1C(=O)NNC(=S)Nc1ccc([N+](=O)[O-])cc1 [Compound 2] | 21.62 (≈ 67.5 µM) | 16 |  |  |  |  |  |  |  |  |  |  |  |
| Cc1nc[nH]c1C(=O)NNC(=S)Nc1cccc(Cl)c1 [Compound 3] | 25.70 (≈ 83 µM) | 10 |  |  |  |  |  |  |  |  |  |  |  |
| Cc1ccc(NC(=S)NNC(=O)c2[nH]cnc2C)cc1Cl [Compound 4] | 18.62 (≈ 57.5 µM) | 4 |  |  |  |  |  |  |  |  |  |  |  |
| Cc1nc[nH]c1C(=O)NNC(=S)Nc1ccccc1F [Compound 5] |  |  | 2.8 | ≥ 69 | 6.61 | 98.1 | 97.3 | 74.8 | 87 | 69.3 | 64.1 | 45.8 | 455 (≈ 1550 µM) |
| Cc1nc[nH]c1C(=O)NNC(=S)Nc1cccc(F)c1 [Compound 6] |  |  | 2.99 | ≥ 69 | 7.79 | 96.3 | 97.3 | 75.4 | 64.8 | 62.4 | 52.3 | 35.4 | 885 (≈ 3020 µM) |
| Cc1nc[nH]c1C(=O)NNC(=S)Nc1ccc(F)cc1 [Compound 7] |  |  | 2.8 | ≥ 69 | 8.86 | 103 | 103 | 89.2 | 83.1 | 69.9 | 61.4 | 48.7 | 977 (≈ 3330 µM) |
| Cc1nc[nH]c1C(=O)NNC(=S)Nc1cccc(Cl)c1 [Compound 9] |  |  | 3.51 | 24.1 (≈ 78 µM) | 11.30 | 93.9 | 88.5 | 75.3 | 64.7 | 56.7 | 30.2 | 8.47 | 273 (≈ 881 µM) |
| Cc1nc[nH]c1C(=O)NNC(=S)Nc1ccc(Cl)cc1 [Compound 10] |  |  | 3.44 | ≥ 69 | 3.15 | 103 | 96.3 | 70.3 | 63.6 | 56.6 | 23.6 | 13.6 | 231 (≈ 746 µM) |
| Cc1nc[nH]c1C(=O)NNC(=S)Nc1cccc(Br)c1 [Compound 12, 4-(3-Bromophenyl)-1-(4-methylimidazol-5-oyl)thiosemicarbazide] |  |  | 3.71 | 15.6 (≈ 44.2 µM) |  | 95.3 | 89 | 74.4 | 65.7 | 56.8 | 20.2 | 7.52 | 238 (≈ 671 µM) |
| Cc1nc[nH]c1C(=O)NNC(=S)Nc1ccc(Br)cc1 [Compound 13, 4-(4-Bromophenyl)-1-(4-methylimidazol-5-oyl)thiosemicarbazide] |  |  | 3.64 | 14.6 (≈ 41.1 µM) |  | 93.5 | 82 | 64.1 | 56.6 | 51.1 | 42.1 | 30.8 | 224 (≈ 631 µM) |
| Cc1nc[nH]c1C(=O)NNC(=S)Nc1ccccc1I [Compound 14, 4-(2-Iodophenyl)-1-(4-methylimidazol-5-oyl)thiosemicarbazide] |  |  | 3.23 | 20.3 (≈ 50.6 µM) |  | 95.2 | 92.8 | 83.7 | 65.4 | 44.5 | 26.1 | 25 | 199 (≈ 496 µM) |
| COc1cc(Cc2cnc(N)nc2N)cc(OC)c1OC [trimethoprim, 2,4-diamino-5-(3,4,5-trimethoxybenzyl)pyrimidine, reference compound] |  |  |  | 12.1 (≈ 41.8 µM) | >2.64 |  |  |  |  |  |  |  | > 32 |
